Experimental data as given in patent publication US20020028258A1, “Immunostimulant compositions and associated methods” (Pharmanex, LLC, priority 2000, published 2002).

Experiments:
Format in all cases: cell-based, human
Conditions in all cases: 50 ng/ml
CD4+ immune cells = assay: Immune Cell Stimulation Assay Method (CD69 expression, flow cytometry), CD4+
Procedure: (§1) Each immunostimulation assay uses a Becton Dickinson FACScan flow cytometer to quantify immune cell activity. The specific protocol for measuring such activity utilizes freshly drawn human blood collected in sodium heparin to 200 μL. Echinacea extract is added in a desired concentration after being mixed with 50 μL of phosphate buffer. The blood and Echinacea mixture is vortexed and incubated at 37° C. for 5 hours to allow adequate time for immune cell stimulation.
(§2) Positive controls consist of PMA (50 ng/ml), PHA ([…]), or CD2/CD2R (5 μL/250 μL) and negative controls consist of DMSO (2% in RPMI), RPMI, and cyclosporin A (10 μg/ml). For staining, 20 μL of reagent cocktail (CD4FITC/CD69PE/CD3PerCP (expressed on the helper/inducer T-lymphocyte subset and is the primary receptor for HIV); CD8FITC/CD69PE/CD3PerCP (expressed on the human suppressor/cytotoxic T-lymphocytes and on a subset of natural killer lymphocytes); CD19FITC/CD69PE/CD45PerCP (expressed on B-lymphocytes); CD56FITC/CD69PE/CD45PerCP (expressed on NK lymphocytes), for examples) are used.
Following the cell stimulation period described above, solutions of fractions and constituents are compared quantitatively with the above-recited controls. Next 50 μL of the stimulated blood samples are added to each of the tubes containing the reagent cocktail, vortexed and incubated at room temperature for 30 min. in the dark. Then 450 μL of 1× FACS lysing solution is added to each tube which is vortexed gently and incubated in the dark at room temp. for 20 min. The prepared samples are analyzed in the flow cytometer. CD69 (CD stands for cluster determinant) is the first […] expressed by any of these cells following stimulation and is produced on the surface of T-, B- and NK-lymphocytes. […] Individual cell types are quantitated using appropriate stains and gating as known by those skilled in the art.

CD8+ immune cells = assay: Immune Cell Stimulation Assay Method (CD69 expression, flow cytometry), CD8+
Procedure: as §1, §2
(§3) Following the cell stimulation period described above, solutions of fractions and constituents are compared quantitatively with the above-recited controls. […] The prepared samples are analyzed in the flow cytometer. […] Individual cell types are quantitated using appropriate stains and gating as known by those skilled in the art.

CD19+ cells = assay: Immune Cell Stimulation Assay Method (CD69 expression, flow cytometry), CD19+
Procedure: as §1, §2, §3

CD56+ cells = assay: Immune Cell Stimulation Assay Method (CD69 expression, flow cytometry), CD56+
Procedure: as §1, §2, §3

## CCCCCCCCCCCCCC(=O)O[C@@H]1[C@@H](C)[C@@]2(O)[C@@H](C=C(CO)C[C@]3(O)C(=O)C(C)=C[C@@H]23)[C@@H]2C(C)(C)[C@]12OC(C)=O [PMA]
CD4+ immune cells; Table 2
  CD4+ stimulation, positive control: 99.16%
CD4+ immune cells; Table 3
  CD4+ stimulation, positive control: 99.16%
CD4+ immune cells; Table 4
  CD4+ stimulation, positive control: 99.20%
CD4+ immune cells; Table 7
  CD4+ stimulation, positive control: 99.42%
CD4+ immune cells; Table 8
  CD4+ stimulation, positive control: 98.770%
CD8+ immune cells; Table 7
  CD8+ stimulation, positive control: 99.04%
CD8+ immune cells; Table 8
  CD8+ stimulation, positive control: 98.320%
CD19+ cells; Table 7
  CD19+ stimulation, positive control: 97.68%
CD19+ cells; Table 8
  CD19+ stimulation, positive control: 98.820%
CD56+ cells; Table 7
  CD56+ stimulation, positive control: 94.14%
CD56+ cells; Table 8
  CD56+ stimulation, positive control: 94.940%
